# Measurements from patent publication US10806794B2, “Protease inhibitors having enhanced features” (priority 2008, dated 2020).
# Where two headings read alike, the source gives them in different places.
# Key:
# human monocytes = assay: Toxicity in human monocytes in the absence of viral infection; conditions: human
# Procedure: (§1) Fresh human monocytes were infected with the BaL strain of HIV-1 in the presence of test compounds. After seven days in culture, HIV-1 replication was evaluated by measurement of HIV-1 viral capsid protein (p24) in the tissue culture supernatant (Table 7). […] A TI was calculated as described above using TC50 values derived from cell toxicity data in response to test compounds in the absence of viral infection.
# [1] = Plasma protein binding by equilibrium dialysis, human plasma; type: in vitro ADME; conditions: human, plasma
# Procedure: (§2) In assays to estimate binding of test compounds to plasma proteins, test compound solutions (5 μM) are prepared in buffer and species-specific plasma (final DMSO concentration 0.5%). The plasma-containing solution is added to one side of the membrane of an equilibrium dialysis system, and the plasma-free is added to the other side. Dialysis was allowed to reach equilibrium by incubation for two hours at 37° C. The concentration of compound on both sides of the membrane was measured using LC-MS/MS.
# HIV-1BaL = assay: HIV-1 p24 levels after infection of fresh human monocyte/macrophages; type: cell-based; conditions: Human immunodeficiency virus 1, Monocyte, 168 h, read-out: Monocyte/HIV-1BaL EC50, seven days, p24
# Procedure: Mononuclear cells were isolated from fresh human peripheral blood cells by Ficoll-Hypaque density gradient by centrifugation at 600 g for 30 minutes. Banded peripheral blood mononuclear cells (PBMCs) were aspirated from the resulting interface and washed with phosphate buffered saline by low speed centrifugation. […] Cells were allowed to attach for 2 to 12 h at 37° C., then washed with Dulbecco's phosphate buffered saline (DPBS). Monocyte-macrophage monolayer formation was induced by incubation in growth medium (RPMI 1640 medium supplemented with 10% fetal bovine serum, 2 mmol/L L-glutamine, 100 Units/mL penicllin and 10 μg/mL streptomycin) for 7 days. Residual PBMCs were removed by washing the cell monolayers with DPBS. After washing, test compound diluted in growth medium was added to cells. Immediately following test compound addition, HIV-1 virus was added to the cells at multiplicity of infection (MOI)=0.05-0.10. After 7 days in culture, HIV-1 replication was quantified by ELISA measurement of cell-free HIV-1 viral capsid protein (p24) in the tissue culture supernatant of treated monocyte-macrophage monolayers. ELISA to quantify p24 was performed according to manufacturer's instructions (Perkin Elmer, Waltham, Mass.). The quantity of free HIV-1 p24 antigen in the sample was determined by comparing its absorbance at 490 nm to that of control standards.
# as §1
# HIV-1 virions = assay: Infectivity of HIV-1 virions from treated cells on naive CEM-SS cells; type: cell-based
# Procedure: In concert with p24 analysis, cell supernatants collected from cells exposed to test compounds at 8, 16, or 24 hours post-infection were used to infect naïve CEM-SS cells. Cell viability was measured six days post-infection as a measure of virus infectivity (Table 5).
# CEM-SS cells = assay: Post-exposure assay: toxicity in CEM-SS cells; conditions: human
# Procedure: (§3) The effects of pre- and post-infection PI treatment on CEM-SS toxicity were assessed. […] Cell toxicity was monitored six days after infection using XTT reagent. In the post-exposure assay, test compounds were added to cells 0, 24, 48, or 72 h after HIV-1 infection, and cell viability was measured six days post-infection.
# HIV-1 HT/92/599 = assay: HIV-1 reverse transcriptase activity after infection of fresh human PBMCs; type: cell-based; conditions: read-out: PBMC/HIV-1HT/92/599 EC50 ± SD; seven days, reverse transcriptase activity
# Procedure: Fresh human peripheral blood mononuclear cells (PBMCs) obtained from a commercial source were purified following centrifugation using a Ficoll-Hypaque density gradient. Viable cells were induced to proliferate in the presence of PHA-P and recombinant human IL-2 for 72 hours. […] Cell supernatant containing HIV-1 viral was incubated for 90 minutes at 37° C. with a reaction mixture containing EGTA, Triton X-100, Tris (pH 7.4), DTT, MgCl2, poly rA, oligo dT, and tritiated thymidine triphosphate (TTP). Incorporation of TTP into DNA was monitored by spotting the reaction mixture onto a DEAE filter mat, followed by washes with 5% phosphate buffer, distilled water, and 70% ethanol, and subsequent drying of the mat. Radioactivity was measured using a Wallac 1450 Microbeta Trilux liquid scintillation counter using Opti-Fluor O. Test compound-associated toxicity was measured in PBMCs cultured for seven days in the absence of virus using XTT reagent. […] TI was calculated as TC50/EC50.
# HIV-1RF [2] = assay: p24 levels after single high MOI HIV-1RF infection of CEM-SS cells, time of addition; type: cell-based
# Procedure: The cytoprotective effect against HIV of the PEG-protease inhibitor conjugates was evaluated during a single round of high multiplicity of infection (“MOI”) HIV-1 infection in CEM-SS cells. CEM-SS cells were incubated for one hour with a single high MOI dose of HIV-1RF. Cells were washed to remove free virus, then test compounds were added to cells at 0, 2, 4, 6, 8, 16, or 24 hours after HIV-1 infection. To monitor viral replication, cell supernatants were analyzed at 30 hours post-infection for levels of the HIV capsid protein p24 (FIG. 1). […] Nevirapine inhibited viral replication at 1 μM when added to cells up to four hours post-infection, and at 10 μM when added up to eight hours post-infection.
# HIV-1RF [3] = assay: Post-exposure assay: compounds added after HIV-1 infection of CEM-SS cells, cell viability; type: cell-based; conditions: Human immunodeficiency virus 1, CEM-SS
# Procedure: as §3
# HIV-1RF [4] = assay: Pre-exposure assay: CEM-SS cells treated before HIV-1RF infection, cell viability; type: cell-based; conditions: Human immunodeficiency virus 1, CEM-SS
# Procedure: as §3
# CYP3A4 [5] = target: T1, CYP3A4 (Homo sapiens (Human), UniProt P08684); assay: Metabolic stability in CYP3A4-expressing Bactosomes; type: in vitro ADME; conditions: 5 μM
# Procedure: (§4) Compounds were evaluated for their propensity to act as substrates of individual human cytochrome P450 enzymes using a bacterial membrane preparation co-expressing human NADPH-cytochrome P450 reductase with either human CYP3A4 or CYP2D6 (Bactosomes™ Cypex, Ltd., Dundee, UK). In vitro metabolism studies using Bactosomes™ expressing individual human CYP isoforms monitor the extent to which a test compound is metabolized by a single CYP450 enzyme and allow identification of the CYP isoforms that may be responsible for the metabolism of a test compound. Timecourse analyses of test molecules (5 μM) with CYP2D6- or CYP3A4-expressing Bactosomes™ (100 pmol/mL) are performed in buffer (0.1 M phosphate, pH 7.4) in a final reaction volume of 25 μL. […] Reactions are terminated by the addition of methanol (50 μL) containing internal standard at 0, 5, 15, 30, and 45 minutes.
# human plasma proteins = assay: Plasma protein binding by equilibrium dialysis, human plasma; type: in vitro ADME; conditions: human plasma, 5 μM, fraction unbound
# Procedure: as §2
# Caco-2 cells = assay: Bi-directional permeability in Caco-2 monolayers; conditions: Caco-2 monolayers, apical to basolateral
# Procedure: Absorption properties of various compounds were measured using bi-directional permeability assays in Caco-2 cells. […] The efflux ratio is calculated as the ratio of the Papp(B→A)/Papp(A→B).
# CYP2D6 = CYP2D6 (Homo sapiens (Human), UniProt P10635); assay: Metabolic stability in CYP2D6-expressing Bactosomes; type: in vitro ADME; conditions: 5 μM
# Procedure: as §4
# HIV-1RF [6] = assay: Anti-HIV cytoprotection in CEM-SS cells infected with HIV-1RF (XTT); type: cell-based; conditions: six days, XTT; read-out: CEM-SS/HIV-1RF EC50 ± SD
# Procedure: To evaluate whether conjugated protease inhibitors retain the ability to protect against HIV-1 infection, CEM-SS cells infected with the RF strain of HIV-1 were treated with test compounds for six days, and then cell viability was monitored using the tetrazolium dye XTT. […] A value for Therapeutic Index (TI) was calculated as TC50/EC50.
# [7] = Metabolic stability in human liver microsomes; conditions: human liver microsomes, 3 μM
# Procedure: The human liver microsome-mediated biotransformation of PEG-PI compounds was determined by monitoring the loss of the substrate as a function of time. […] Test compounds (3 μM final concentration) were preincubated with pooled (male and female) human liver microsomes (0.5 mg/mL final protein concentration) in buffer (0.1M phosphate buffer, pH 7.4) at 37° C. Reactions were initiated by the addition of NADPH (1 mM final concentration), and allowed to continue for 0, 5, 15, 30, and 45 minutes. […] Sample supernatants are analyzed by liquid chromatography-tandem mass spectrometry.
# CYP3A4 [8] = target: T1, CYP3A4; assay: CYP450 inhibition in human liver microsomes: CYP3A4;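 also: incubation at 37 °C started by adding 1 mM NADPH, with formation of the probe metabolite measured via LC-MS/MS or fluorescent detection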
# [9] = system: human liver microsomal proteins; assay: Microsomal protein binding by equilibrium dialysis; type: in vitro ADME; conditions: human liver microsomes, 3 μM, fraction unbound
# Procedure: PEGylated protease inhibitors were evaluated for their propensity to be bound by proteins in normal human plasma or in human liver microsome preparations using equilibrium dialysis analysis. For microsomal protein binding, test compound (final concentration=3 μM) was diluted into either buffer alone or buffer containing human liver microsomes. The protein-free and microsome-containing solutions were then added to either side of an equilibrium dialysis system and allowed to reach equilibrium at 37° C. The concentration of compound on both sides of the membrane at equilibrium was quantified by LC-MS/MS, and the fraction of compound that remains unbound (Fu) is calculated.
# human hepatocytes = assay: Metabolic stability in cryopreserved human hepatocytes; conditions: human hepatocytes
# Procedure: Metabolism of PI conjugates was investigated by monitoring the levels of unmetabolized parent compound following incubation with cryopreserved human or monkey hepatocytes. The use of whole hepatocytes rather than microsomes requires that the drugs cross the cell membrane to interact with intracellularly-localized metabolic enzymes, and thus provides the most relevant in vitro system for understanding overall metabolic stability of these compounds.
# Test compounds (0.1 μM or 3 μM, as indicated) are incubated with cryopreserved human hepatocytes at a cell density of 0.5×10^6 viable cells/mL. […] Duplicate samples (50 μL) are removed from the incubation mixture at various timepoints up to four hours (for 0.1 μM test compound concentration), or one or two hours (for 3 μM test compound concentration), and the reaction is quenched by the addition of methanol containing internal standard (100 μL). The samples are centrifuged (2500 rpm at 4° C. for 20 min), and the supernatants at each time point pooled for cassette analysis by LC-MS/MS.
# T1 sequence (P08684 whole entry, canonical isoform): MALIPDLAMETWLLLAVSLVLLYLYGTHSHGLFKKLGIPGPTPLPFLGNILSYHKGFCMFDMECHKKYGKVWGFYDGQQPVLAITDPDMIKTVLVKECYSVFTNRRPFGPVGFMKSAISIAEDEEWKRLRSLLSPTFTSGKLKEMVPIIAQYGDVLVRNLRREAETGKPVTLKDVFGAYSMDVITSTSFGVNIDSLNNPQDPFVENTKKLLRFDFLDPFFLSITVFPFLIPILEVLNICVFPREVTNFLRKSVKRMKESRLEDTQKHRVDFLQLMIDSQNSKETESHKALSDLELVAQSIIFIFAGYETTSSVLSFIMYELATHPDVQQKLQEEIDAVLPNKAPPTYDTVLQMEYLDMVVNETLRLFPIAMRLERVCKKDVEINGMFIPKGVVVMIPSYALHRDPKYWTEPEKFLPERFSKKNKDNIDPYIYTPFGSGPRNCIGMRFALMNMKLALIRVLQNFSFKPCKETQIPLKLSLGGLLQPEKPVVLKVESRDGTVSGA
# CYP2D6, sequence (P10635 whole entry): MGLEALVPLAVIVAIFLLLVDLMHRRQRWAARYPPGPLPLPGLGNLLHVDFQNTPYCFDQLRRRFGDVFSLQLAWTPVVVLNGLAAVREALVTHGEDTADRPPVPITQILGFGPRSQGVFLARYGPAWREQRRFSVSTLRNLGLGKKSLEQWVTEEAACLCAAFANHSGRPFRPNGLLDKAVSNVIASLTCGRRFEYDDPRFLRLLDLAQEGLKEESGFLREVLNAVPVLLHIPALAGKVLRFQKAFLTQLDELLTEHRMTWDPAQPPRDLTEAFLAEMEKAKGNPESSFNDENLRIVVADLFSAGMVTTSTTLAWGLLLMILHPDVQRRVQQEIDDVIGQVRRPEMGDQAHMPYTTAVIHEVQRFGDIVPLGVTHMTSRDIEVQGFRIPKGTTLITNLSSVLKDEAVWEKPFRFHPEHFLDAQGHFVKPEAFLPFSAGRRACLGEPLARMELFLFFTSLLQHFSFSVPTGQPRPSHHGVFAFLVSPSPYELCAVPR
compound,measurement,setting,value
CC(C)(C)NC(=O)[C@@H]1C[C@@H]2CCCC[C@@H]2CN1C[C@@H](O)[C@H](Cc1ccccc1)NC(=O)[C@H](CC(N)=O)NC(=O)c1ccc2ccccc2n1 [Saquinavir],TC50,human monocytes,>1000 nM
same,"fraction unbound at 2 h, 5 μM",[1],0.0353 ± 0.00151
same,EC50,HIV-1BaL,40 nM
same,Percent Infectivity of HIV-1 Virions in comparison to virus-alone control,"HIV-1 virions; 0.01 μM, added 8 h post-infection",100.0%
same,Percent Infectivity of HIV-1 Virions in comparison to virus-alone control,"HIV-1 virions; 0.01 μM, added 16 h post-infection",117.0%
same,Percent Infectivity of HIV-1 Virions in comparison to virus-alone control,"HIV-1 virions; 0.01 μM, added 24 h post-infection",404.8%
same,Percent Infectivity of HIV-1 Virions in comparison to virus-alone control,"HIV-1 virions; 0.1 μM, added 8 h post-infection",5.6%
same,Percent Infectivity of HIV-1 Virions in comparison to virus-alone control,"HIV-1 virions; 0.1 μM, added 16 h post-infection",10.0%
same,Percent Infectivity of HIV-1 Virions in comparison to virus-alone control,"HIV-1 virions; 0.1 μM, added 24 h post-infection",128.0%
same,reduction of virion infectivity vs virus-only control,HIV-1 virions; 1 μM at 24 hours post-infection,~90%
same,Percent Infectivity of HIV-1 Virions in comparison to virus-alone control,"HIV-1 virions; 1 μM, added 8 h post-infection",0.1%
same,Percent Infectivity of HIV-1 Virions in comparison to virus-alone control,"HIV-1 virions; 1 μM, added 16 h post-infection",7.8%
same,Percent Infectivity of HIV-1 Virions in comparison to virus-alone control,"HIV-1 virions; 1 μM, added 24 h post-infection",12.8%
same,reduction of virion infectivity vs virus-only control,HIV-1 virions; 0.1 or 1 μM at 8 and 16 hours post-infection,at least 90%
same,TC50,CEM-SS cells; 3 days,>1000 nM
same,TC50,CEM-SS cells; 4 days,>1000 nM
same,TC50,CEM-SS cells; 5 days,>1000 nM
same,TC50,CEM-SS cells; 6 days,>1000 nM
same,EC50,HIV-1 HT/92/599,9 nM
same,time of addition up to which antiviral activity (reduced p24) was seen,HIV-1RF [2]; 0.1 μM,up to 16 hours post-infection
same,time of addition up to which antiviral activity (reduced p24) was seen,HIV-1RF [2]; 1 μM,up to 24 hours post-infection
same,EC50,HIV-1RF [3]; 0 h,< 3 nM
same,EC50,HIV-1RF [3]; 24 h,4 nM
same,EC50,HIV-1RF [3]; 48 h,5 nM
same,EC50,HIV-1RF [3]; 72 h,10 nM
same,EC50,HIV-1RF [4]; 2 h,20 nM
same,EC50,HIV-1RF [4]; 8 h,50 nM
same,EC50,HIV-1RF [4]; 24 h,40 nM
COCCOCCOCCNc1ccc(S(=O)(=O)N(CC(C)C)CC(O)[C@H](Cc2ccccc2)NC(=O)O[C@H]2CO[C@H]3OCC[C@H]32)cc1 (some centres unmarked) [mPEG3-N-Darunavir],3A4 t1/2 ± SEM,CYP3A4 [5],66.6 ± 4.88 min
same,Plasma Protein Binding Fu ± SD,human plasma proteins,0.236 ± 0.0292
same,"A→B, ×10^−6",Caco-2 cells,2.52 cm/s
same,2D6 t1/2 ± SEM,CYP2D6,68.4 ± 18.9 min
same,EC50,HIV-1RF [6],< 0.7 nM
same,CLint ± SEM,[7],385 ± 0.718 μL/min/mg protein
same,t1/2,[7],3.60 min
same,IC50,"CYP3A4 [8]; read-out: CYP3A4 IC50 Midazolam, probe substrate midazolam",1200 nM
same,IC50,"CYP3A4 [8]; read-out: CYP3A4 IC50 Testosterone, probe substrate testosterone",3100 nM
same,Microsomal Protein Binding Fu ± SD,[9],0.96 ± 0.0407
same,CLint ± SEM,"human hepatocytes; 0.1 uM, up to four hours",48.0 ± 4.75 μL/min/10^6 cells
same,t1/2,"human hepatocytes; 0.1 uM, up to four hours",28.9 min
same,CLint ± SEM,"human hepatocytes; 3 uM, incubated up to one hour",18.2 ± 1.47 μL/min/10^6 cells
